# Laboratory results: patent publication US8722849B2, “Polypeptides” (Novo Nordisk A/S, priority 2011, dated 2014)
# Starred links: 1 amine or outer side, 2 acyl side, 3 side chain; linkers in the order of their positions; H or OH if unused. Positions of bridges follow the written chain, without caps; N, C: chain ends. Residues, ends and D or L forms follow the SMILES beside them. Groups on a side chain read outwards from the residue. *: point of attachment. C20 diacid = O=C(O)CCCCCCCCCCCCCCCCCCC(=O)*; γGlu = O=C(O)[C@H](CCC(=O)[*:2])N[*:1]
# Key:
# [1] = system: food intake; assay: Assay (I) efficacy testing on appetite (food intake), ad libitum fed rat model; type: in vivo, Sprague Dawley (SD) rats
# Text: In the following examples reference is made to the following Assays: • Assay (I)— Experimental protocol for efficacy testing on appetite using an ad libitum fed rat model • ASSAY (II)a—Functional assay—Human calcitonin and amylin receptor assay • ASSAY (II)b—Functional assay—Rat calcitonin and rat amylin receptor assays • ASSAY (III)—ThT fibrillation assays for the assessment of physical stability of protein formulations • ASSAY (IV)—Determination of solubility • ASSAY (V)—Determination of binding to the human amylin receptor • ASSAY (VI)—Determination of the binding to the rat amylin receptor • ASSAY (VII)—Determination of binding to the human calcitonin receptor • ASSAY (VIII)—Determination of binding to the rat calcitonin receptor • ASSAY (IX)—pK—Determination of T % in mini-pig • ASSAY (X)—pK—Determination of T % in rat ASSAY (I)—Experimental Protocol for Efficacy Testing on Appetite Using an Ad Libitum Fed Rat Model
# Sprague Dawley (SD) rats from Taconic Europe, Denmark are used for the experiments. The rats have a body weight 200-250 g at the start of experiment. The rats arrive at least 10-14 days before start of experiment to allow acclimatization to experimental settings. During this period the animals are handled at least 2 times. After arrival rats are housed individually for one week in a reversed light/dark phase (meaning that lights are off during daytime and on during nighttime) […]. Since rats are normally active and eat their major part of their daily food intake during the dark period, rats are dosed in the morning right before lights are turned off. This set-up results in the lowest data variation and highest test sensitivity. The experiment is conducted in the rats' home cages and rats have free access to food and water throughout the acclimatization period and the experiment period. Each dose of derivative is tested in a group of 5-8 rats. A vehicle group of 6-8 rats is included in each set of testing. Rats are dosed once according to body weight with a 0.01-3 mg/kg solution administered intraperitoneally (ip), orally (po) or subcutaneously (sc). The time of dosing is recorded for each group. After dosing, the rats are returned to their home cages, where they then have access to food and water. The food consumption is recorded individually continuously by on-line registration or manually every hour for 7 hours, and then after 24 h and sometimes 48 h. At the end of the experimental session, the animals are euthanised.
# The individual data are recorded in Microsoft excel sheets. Outliers are excluded after applying the Grubbs statistical evaluation test for outliers, and the result is presented graphically using the GraphPad Prism program.
# [2] = Assay (III) ThT fibrillation assay for physical stability; type: physicochemical
# In short: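 Freshly prepared formulations, pH-adjusted, with 1 μM ThT; four or eight replicates incubated at 37 °C under 960 rpm orbital shaking. Fluorescence (ex 444/em 485 nm) read every 20 min; […]. Peptide concentration measured by RP-HPLC before and after the run.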
Compound,ThT pH 4.0 lag time ([2]; ThT fibrillation assay),ThT pH 4.0 lag time (h) ([2]; ThT fibrillation assay),ThT pH 4.0 lag time ([2]; Table 8),Food intake reduction 0-24 h 3 nmol/kg (%) ([1]; 0-24 h),"Food intake reduction 0-24 h 30 nmol/kg (%) ([1]; 0-24 h, 30 nmol/kg)",Food intake reduction 24-48 h 3 nmol/kg (%) ([1]; 24-48 h),"Food intake reduction 24-48 h 30 nmol/kg (%) ([1]; 24-48 h, 30 nmol/kg)"
"CC[C@H](C)[C@H](NC(=O)[C@@H]1CCCN1C(=O)CNC(=O)[C@H](Cc1ccccc1)NC(=O)[C@H](CC(N)=O)NC(=O)[C@H](CC(N)=O)NC(=O)[C@H](CO)NC(=O)[C@H](CO)NC(=O)[C@H](Cc1c[nH]cn1)NC(=O)[C@H](Cc1c[nH]cn1)NC(=O)[C@H](CC(C)C)NC(=O)[C@H](Cc1ccccc1)NC(=O)[C@H](CCC(=O)O)NC(=O)[C@H](C)NC(=O)[C@H](CC(C)C)NC(=O)[C@H](CCCNC(=N)N)NC(=O)[C@H](CCC(N)=O)NC(=O)[C@@H](NC(=O)[C@H](C)NC(=O)[C@@H]1CSSC[C@H](NC(=O)[C@@H](N)CCCCNC(=O)CC[C@H](NC(=O)CCCCCCCCCCCCCCCCCCC(=O)O)C(=O)O)C(=O)N[C@@H](CC(N)=O)C(=O)N[C@@H]([C@@H](C)O)C(=O)N[C@@H](C)C(=O)N[C@@H]([C@@H](C)O)C(=O)N1)[C@@H](C)O)C(=O)N[C@@H](CC(C)C)C(=O)N1CCC[C@H]1C(=O)N1CCC[C@H]1C(=O)N[C@H](C(=O)N[C@@H](CC(N)=O)C(=O)N[C@H](C(=O)NCC(=O)N[C@@H](CO)C(=O)N[C@@H](Cc1c[nH]cn1)C(=O)N[C@H](C(=O)N[C@@H](Cc1ccc(O)cc1)C(N)=O)[C@@H](C)O)C(C)C)[C@@H](C)O [Example 87, N-epsilon1-[(S)-4-Carboxy-4-(19-carboxynonadecanoylamino)butyryl]-[Glu14,His17,His35]-pramlintide] (H-K([γGlu-C20 diacid])CNTATCATQRLAEFLHHSSNNFGPILPPTNVGSHTY-NH2; disulfide 2-7 (inferred))",25 h,25 h,25 h,66%,–,47%,–
"CC[C@H](C)[C@H](NC(=O)[C@@H]1CCCN1C(=O)CNC(=O)[C@H](Cc1ccccc1)NC(=O)[C@H](CC(N)=O)NC(=O)[C@H](CC(N)=O)NC(=O)[C@H](CO)NC(=O)[C@H](CO)NC(=O)[C@H](Cc1c[nH]cn1)NC(=O)[C@H](Cc1c[nH]cn1)NC(=O)[C@H](CC(C)C)NC(=O)[C@H](Cc1ccccc1)NC(=O)[C@H](CCC(=O)O)NC(=O)[C@H](C)NC(=O)[C@H](CC(C)C)NC(=O)[C@H](CCCNC(=N)N)NC(=O)[C@H](CCC(N)=O)NC(=O)[C@@H](NC(=O)[C@H](C)NC(=O)[C@@H]1CSSC[C@H](NC(=O)[C@H](Cc2c[nH]cn2)NC(=O)CC[C@H](NC(=O)CCCCCCCCCCCCCCCCCCC(=O)O)C(=O)O)C(=O)N[C@@H](CC(N)=O)C(=O)N[C@@H]([C@@H](C)O)C(=O)N[C@@H](C)C(=O)N[C@@H]([C@@H](C)O)C(=O)N1)[C@@H](C)O)C(=O)N[C@@H](CC(C)C)C(=O)N1CCC[C@H]1C(=O)N1CCC[C@H]1C(=O)N[C@H](C(=O)N[C@@H](CC(N)=O)C(=O)N[C@H](C(=O)NCC(=O)N[C@@H](CO)C(=O)N[C@@H](CC(N)=O)C(=O)N[C@H](C(=O)N1CCC[C@H]1C(N)=O)[C@@H](C)O)C(C)C)[C@@H](C)O [Example 84, N-alpha-[(S)-4-Carboxy-4-(19-carboxynonadecanoylamino)butyryl]-[His1,Glu14,His17,Pro37]-pramlintide] ({C20 diacid-γGlu}-HCNTATCATQRLAEFLHHSSNNFGPILPPTNVGSNTP-NH2; disulfide 2-7 (inferred); C-terminus assumed)",25.6 h,25.6 h,25.6 h,68%,–,67%,–

# Further lines, with some results ahead:
ThT pH 4.0 lag time ([2]; ThT fibrillation assay),ThT pH 4.0 lag time (h) ([2]; ThT fibrillation assay),ThT pH 4.0 lag time ([2]; Table 8),Compound,Food intake reduction 0-24 h 3 nmol/kg (%) ([1]; 0-24 h),"Food intake reduction 0-24 h 30 nmol/kg (%) ([1]; 0-24 h, 30 nmol/kg)",Food intake reduction 24-48 h 3 nmol/kg (%) ([1]; 24-48 h),"Food intake reduction 24-48 h 30 nmol/kg (%) ([1]; 24-48 h, 30 nmol/kg)"
37 h,37 h,–,"CC[C@H](C)[C@H](NC(=O)[C@@H]1CCCN1C(=O)CNC(=O)[C@H](Cc1ccccc1)NC(=O)[C@H](CC(N)=O)NC(=O)[C@H](CC(N)=O)NC(=O)[C@H](CO)NC(=O)[C@H](CO)NC(=O)[C@H](Cc1c[nH]cn1)NC(=O)[C@H](Cc1c[nH]cn1)NC(=O)[C@H](CC(C)C)NC(=O)[C@H](Cc1ccccc1)NC(=O)[C@H](CCC(=O)O)NC(=O)[C@H](C)NC(=O)[C@H](CC(C)C)NC(=O)[C@H](CCCNC(=N)N)NC(=O)[C@H](CCC(N)=O)NC(=O)[C@@H](NC(=O)[C@H](C)NC(=O)[C@@H]1CSSC[C@H](NC(=O)[C@H](CCCCN)NC(=O)CC[C@H](NC(=O)CCCCCCCCCCCCCCCCCCC(=O)O)C(=O)O)C(=O)N[C@@H](CC(N)=O)C(=O)N[C@@H]([C@@H](C)O)C(=O)N[C@@H](C)C(=O)N[C@@H]([C@@H](C)O)C(=O)N1)[C@@H](C)O)C(=O)N[C@@H](CC(C)C)C(=O)N1CCC[C@H]1C(=O)N1CCC[C@H]1C(=O)N[C@H](C(=O)N[C@@H](CC(N)=O)C(=O)N[C@H](C(=O)NCC(=O)N[C@@H](CO)C(=O)N[C@@H](Cc1c[nH]cn1)C(=O)N[C@H](C(=O)N[C@@H](Cc1ccc(O)cc1)C(N)=O)[C@@H](C)O)C(C)C)[C@@H](C)O [Example 55, N-alpha-[(S)-4-Carboxy-4-(19-carboxynonadecanoylamino)butyryl]-[Glu14,His17,His35]-pramlintide] ({C20 diacid-γGlu}-KCNTATCATQRLAEFLHHSSNNFGPILPPTNVGSHTY-NH2; disulfide 2-7 (inferred))",58%,88%,40%,90%
–,3 h,–,"CC[C@H](C)[C@H](NC(=O)[C@@H]1CCCN1C(=O)CNC(=O)[C@H](Cc1ccccc1)NC(=O)[C@H](CC(N)=O)NC(=O)[C@H](CC(N)=O)NC(=O)[C@H](CO)NC(=O)[C@H](CO)NC(=O)[C@H](Cc1c[nH]cn1)NC(=O)[C@H](Cc1c[nH]cn1)NC(=O)[C@H](CC(C)C)NC(=O)[C@H](Cc1ccccc1)NC(=O)[C@H](CCC(=O)O)NC(=O)[C@H](C)NC(=O)[C@H](CC(C)C)NC(=O)[C@H](CCCNC(=N)N)NC(=O)[C@H](CCC(N)=O)NC(=O)[C@@H](NC(=O)[C@H](C)NC(=O)[C@@H]1CSSC[C@H](NC(=O)[C@H](CCC(=O)O)NC(=O)CC[C@H](NC(=O)CCCCCCCCCCCCCCCCCCC(=O)O)C(=O)O)C(=O)N[C@@H](CC(N)=O)C(=O)N[C@@H]([C@@H](C)O)C(=O)N[C@@H](C)C(=O)N[C@@H]([C@@H](C)O)C(=O)N1)[C@@H](C)O)C(=O)N[C@@H](CC(C)C)C(=O)N1CCC[C@H]1C(=O)N1CCC[C@H]1C(=O)N[C@H](C(=O)N[C@@H](CC(N)=O)C(=O)N[C@H](C(=O)NCC(=O)N[C@@H](CO)C(=O)N[C@@H](CC(N)=O)C(=O)N[C@H](C(=O)N[C@@H](Cc1ccc(O)cc1)C(N)=O)[C@@H](C)O)C(C)C)[C@@H](C)O [Example 29, N-alpha-[(S)-4-Carboxy-4-(19-carboxynonadecanoylamino)butyryl]-[Glu1,Glu14,His17]-pramlintide] ({C20 diacid-γGlu}-ECNTATCATQRLAEFLHHSSNNFGPILPPTNVGSNTY-NH2; disulfide 2-7 (inferred))",15%,–,5%,–
–,9.3 h,–,"CC[C@H](C)[C@H](NC(=O)[C@@H]1CCCN1C(=O)CNC(=O)[C@H](Cc1ccccc1)NC(=O)[C@H](CC(N)=O)NC(=O)[C@H](CC(N)=O)NC(=O)[C@H](CO)NC(=O)[C@H](CO)NC(=O)[C@H](Cc1c[nH]cn1)NC(=O)[C@H](Cc1c[nH]cn1)NC(=O)[C@H](CC(C)C)NC(=O)[C@H](Cc1ccccc1)NC(=O)[C@H](CCC(=O)O)NC(=O)[C@H](C)NC(=O)[C@H](CC(C)C)NC(=O)[C@H](CCCNC(=N)N)NC(=O)[C@H](CCC(N)=O)NC(=O)[C@@H](NC(=O)[C@H](C)NC(=O)[C@@H]1CSSC[C@H](NC(=O)CC[C@H](NC(=O)CCCCCCCCCCCCCCCCCCC(=O)O)C(=O)O)C(=O)N[C@@H](CC(N)=O)C(=O)N[C@@H]([C@@H](C)O)C(=O)N[C@@H](C)C(=O)N[C@@H]([C@@H](C)O)C(=O)N1)[C@@H](C)O)C(=O)N[C@@H](CC(C)C)C(=O)N1CCC[C@H]1C(=O)N1CCC[C@H]1C(=O)N[C@H](C(=O)N[C@@H](CC(N)=O)C(=O)N[C@H](C(=O)NCC(=O)N[C@@H](CO)C(=O)N[C@@H](CC(N)=O)C(=O)N[C@H](C(=O)N[C@@H](Cc1ccc(O)cc1)C(N)=O)[C@@H](C)O)C(C)C)[C@@H](C)O [Example 28, N-alpha-[(S)-4-Carboxy-4-(19-carboxynonadecanoylamino)butyryl]-[des1,Glu14,His17]-pramlintide] ({C20 diacid-γGlu}-CNTATCATQRLAEFLHHSSNNFGPILPPTNVGSNTY-NH2; disulfide 1-6 (inferred))",39%,–,36%,–
